# Target: CSF-1R (Homo sapiens, UniProt P07333)
# Experiment: Peptide (non-phosphorylated) assay, fluorescence polarization competition immunoassay
# Format: biochemical
# Conditions: 0.7 nM CSF-1R, 308 μM SYEGNSYTFIDPTQ peptide, 1 mM ATP, 80 min; mean of at least three determinations; read-out: c-fms Peptide IC50
# Procedure: The kinase reaction was initiated by adding 1 μL of 10 mM ATP in assay buffer. […] Positive and negative control wells were included on each plate, where 4% DMSO in assay buffer was substituted for the compound; in addition, positive control wells received 1.2 μL of 50 mM EDTA before the start of the reaction.
# The plates were covered and incubated at room temperature for 80 min. Reactions were stopped by addition of 1.2 μL of 50 mM EDTA. Each well then received 10 μL of a 1:1:3 mixture of 10× anti-phosphotyrosine antibody, 10×PTK green tracer, and FP dilution buffer, respectively (Cat. # P2837, Invitrogen, Carlsbad, Calif.). The plates were covered, incubated for 30 min at room temperature, and the fluorescence polarization was read on an Analyst plate reader (Molecular Devices).
# Chain of CSF-1R (P07333 20-972): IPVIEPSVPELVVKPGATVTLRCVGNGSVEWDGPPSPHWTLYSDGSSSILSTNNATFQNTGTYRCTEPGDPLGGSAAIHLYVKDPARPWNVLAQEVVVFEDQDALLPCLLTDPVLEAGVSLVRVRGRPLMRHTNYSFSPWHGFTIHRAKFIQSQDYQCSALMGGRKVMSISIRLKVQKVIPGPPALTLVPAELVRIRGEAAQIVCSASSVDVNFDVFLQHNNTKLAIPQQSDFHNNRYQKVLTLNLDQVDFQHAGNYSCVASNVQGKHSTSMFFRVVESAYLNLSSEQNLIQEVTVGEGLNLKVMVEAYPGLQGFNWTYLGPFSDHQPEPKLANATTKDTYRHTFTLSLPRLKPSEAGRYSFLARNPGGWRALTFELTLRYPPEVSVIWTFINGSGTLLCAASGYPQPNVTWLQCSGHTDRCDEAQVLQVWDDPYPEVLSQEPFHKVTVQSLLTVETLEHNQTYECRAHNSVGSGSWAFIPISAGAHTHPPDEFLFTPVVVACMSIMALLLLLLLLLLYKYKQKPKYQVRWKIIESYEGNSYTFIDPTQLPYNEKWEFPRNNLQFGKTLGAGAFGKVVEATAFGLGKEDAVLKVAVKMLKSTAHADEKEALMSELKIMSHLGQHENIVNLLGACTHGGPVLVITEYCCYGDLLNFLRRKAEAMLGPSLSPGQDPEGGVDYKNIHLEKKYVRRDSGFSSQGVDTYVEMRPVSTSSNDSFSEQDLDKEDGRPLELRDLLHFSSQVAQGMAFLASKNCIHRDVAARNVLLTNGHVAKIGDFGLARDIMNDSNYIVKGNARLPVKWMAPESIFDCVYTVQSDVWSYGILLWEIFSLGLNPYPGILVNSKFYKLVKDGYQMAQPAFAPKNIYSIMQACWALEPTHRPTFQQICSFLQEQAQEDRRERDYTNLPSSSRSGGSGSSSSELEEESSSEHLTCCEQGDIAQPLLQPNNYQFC
row,IC50 [nM],SMILES
1,1.5,"CONC(=O)c1cn(-c2ccc3c(c2)CCC3)c2nc(Nc3ccc(CCCN4CCN(C)CC4)cc3)ncc2c1=O [Cpd 151, 8-indan-5-yl-2-{4-[3-(4-methylpiperazin-1-yl)-propyl]-phenylamino}-5-oxo-5,8-dihydro-pyrido[2,3-d]pyrimidine-6-carboxylic acid methoxy-amide]"
2,6.6,"CONC(=O)c1cn(-c2ccc(OC(F)(F)F)cc2)c2nc(Nc3ccc(C4CCN(S(N)(=O)=O)CC4)cc3)ncc2c1=O [Cpd 177, 5-oxo-2-[4-(1-sulfamoyl-piperidin-4-yl)-phenylamino]-8-(4-trifluoromethoxyphenyl)-5,8-dihydropyrido[2,3-d]pyrimidine-6-carboxylic acid methoxy-amide]"
3,0.58,"CCc1ccc(-n2cc(C(=O)NOC)c(=O)c3cnc(Nc4ccc(CCN5CCNC(=O)C5)cc4)nc32)cc1 [Cpd 224, 8-(4-ethyl-phenyl)-5-oxo-2-{4-[2-(3-oxo-piperazin-1-yl)-ethyl]-phenylamino}-5,8-dihydro-pyrido[2,3-d]pyrimidine-6-carboxylic acid methoxy-amide]"
4,4.2,"CONC(=O)c1cn(-c2ccc3c(c2)CCC3)c2nc(Nc3cccc(C(=O)NCCN4CCOCC4)c3)ncc2c1=O [Cpd 198, 8-indan-5-yl-2-[3-(2-morpholin-4-yl-ethylcarbamoyl)-phenylamino]-5-oxo-5,8-dihydro-pyrido[2,3-d]pyrimidine-6-carboxylic acid methoxy-amide]"
5,4.9,"CCc1ccc(-n2cc(C(=O)NOC)c(=O)c3cnc(Nc4cccc(C5(O)CCCN(CC)C5)c4)nc32)cc1 (stereo not drawn) [Cpd 278, 2-[3-(1-ethyl-3-hydroxy-piperidin-3-yl)-phenylamino]-8-(4-ethyl-phenyl)-5-oxo-5,8-dihydro-pyrido[2,3-d]pyrimidine-6-carboxylic acid methoxy-amide]"
6,14,"C#Cc1ccc(-n2cc(C(N)=O)c(=O)c3cnc(Nc4ccc(CCN5CCN(C)CC5)cc4)nc32)cc1 [Cpd 30, 8-(4-ethynyl-phenyl)-2-{4-[2-(4-methyl-piperazin-1-yl)-ethyl]-phenylamino}-5-oxo-5,8-dihydro-pyrido[2,3-d]pyrimidine-6-carboxylic acid amide]"
7,2.4,"CONC(=O)c1cn(-c2ccc3c(c2)CCC3)c2nc(Nc3ccc(C4CCN(CC(=O)NS(C)(=O)=O)CC4)cc3)ncc2c1=O [Cpd 87, 8-indan-5-yl-2-{4-[1-(2-methanesulfonylamino-2-oxo-ethyl)-piperidin-4-yl]-phenylamino}-5-oxo-5,8-dihydro-pyrido[2,3-d]pyrimidine-6-carboxylic acid methoxy-amide]"
8,1.6,"CCc1ccc(-n2cc(C(=O)NOC)c(=O)c3cnc(Nc4ccc(CC(=O)NNC)cc4)nc32)cc1 [Cpd 106, 8-(4-ethyl-phenyl)-2-[4-(N′-methyl-hydrazinocarbonylmethyl)-phenylamino]-5-oxo-5,8-dihydro-pyrido[2,3-d]pyrimidine-6-carboxylic acid methoxy-amide]"
9,0.67,"CONC(=O)c1cn(-c2ccc3c(c2)CCC3)c2nc(Nc3ccc(CCN4CC[C@H](O)C4)cc3)ncc2c1=O [Cpd 255, 2-(4-{2-[(3S)-(3-hydroxy-pyrrolidin-1-yl)]-ethyl}-phenylamino)-8-indan-5-yl-5-oxo-5,8-dihydro-pyrido[2,3-d]pyrimidine-6-carboxylic acid methoxy-amide]"
10,0.63,"CONC(=O)c1cn(-c2ccc3c(c2)CCC3)c2nc(Nc3ccc(CCNCCO)cc3)ncc2c1=O [Cpd 97, 2-{4-[2-(2-hydroxy-ethylamino)-ethyl]-phenylamino}-8-indan-5-yl-5-oxo-5,8-dihydro-pyrido[2,3-d]pyrimidine-6-carboxylic acid methoxy-amide]"
11,1.8,"CCOC(=O)CN1CCC(c2ccc(Nc3ncc4c(=O)c(C(=O)NOC)cn(-c5ccc6c(c5)CCC6)c4n3)cc2)CC1 [Cpd 86, {4-[4-(8-indan-5-yl-6-methoxycarbamoyl-5-oxo-5,8-dihydro-pyrido[2,3-d]pyrimidin-2-ylamino)-phenyl]-piperidin-1-yl}-acetic acid ethyl ester]"
12,6,"CONC(=O)c1cn(-c2ccc3c(c2)CCC3)c2nc(Nc3ccc(C4CCN(CC(F)(F)F)CC4)cc3)ncc2c1=O [Cpd 292, 8-indan-5-yl-5-oxo-2-{4-[1-(2,2,2-trifluoro-ethyl)-piperidin-4-yl]-phenylamino}-5,8-dihydro-pyrido[2,3-d]pyrimidine-6-carboxylic acid methoxy-amide]"
13,3,"COCCc1ccc(Nc2ncc3c(=O)c(C(=O)NOC)cn(-c4ccc5c(c4)CCC5)c3n2)cc1 [Cpd 81, 8-indan-5-yl-2-[4-(2-methoxy-ethyl)-phenylamino]-5-oxo-5,8-dihydro-pyrido[2,3-d]pyrimidine-6-carboxylic acid methoxy-amide]"
14,0.66,"CONC(=O)c1cn(-c2ccc3c(c2)CCC3)c2nc(Nc3cccc(C4(O)CCCNC4)c3)ncc2c1=O (stereo not drawn) [Cpd 275, 2-[3-(3-hydroxy-piperidin-3-yl)-phenylamino]-8-indan-5-yl-5-oxo-5,8-dihydro-pyrido[2,3-d]pyrimidine-6-carboxylic acid methoxy-amide]"
15,110,"NCCNC(=O)c1cn(C2CCCC2)c2nc(Nc3ccc(CCN4CCCC4)cc3)ncc2c1=O [Cpd 44, 8-cyclopentyl-5-oxo-2-[4-(2-pyrrolidin-1-yl-ethyl)-phenylamino]-5,8-dihydro-pyrido[2,3-d]pyrimidine-6-carboxylic acid (2-amino-ethyl)-amide]"
16,5.3,"CNC(=O)c1cn(-c2ccc3c(c2)CCC3)c2nc(Nc3cccc(CCCN(C)C)c3)ncc2c1=O [Cpd 116, 2-[3-(3-dimethylamino-propyl)-phenylamino]-8-indan-5-yl-5-oxo-5,8-dihydro-pyrido[2,3-d]pyrimidine-6-carboxylic acid methylamide]"
17,3.8,"CONC(=O)c1cn(-c2ccc(Cl)cc2)c2nc(Nc3ccc(CCN4CCN(C)CC4)cc3)ncc2c1=O [Cpd 34, 8-(4-chloro-phenyl)-2-{4-[2-(4-methyl-piperazin-1-yl)-ethyl]-phenylamino}-5-oxo-5,8-dihydro-pyrido[2,3-d]pyrimidine-6-carboxylic acid methoxy-amide]"
18,2,"CONC(=O)c1cn(-c2ccc3c(c2)CCC3)c2nc(Nc3ccc(C4CCN(CCC(=O)O)CC4)cc3)ncc2c1=O [Cpd 84, 3-{4-[4-(8-indan-5-yl-6-methoxycarbamoyl-5-oxo-5,8-dihydro-pyrido[2,3-d]pyrimidin-2-ylamino)-phenyl]-piperidin-1-yl}-propionic acid]"
19,0.9,"CCc1ccc(-n2cc(C(=O)NOC)c(=O)c3cnc(Nc4ccc5c(ccn5C)c4)nc32)cc1 [Cpd 290, 8-(4-ethyl-phenyl)-2-(1-methyl-1H-indol-5-ylamino)-5-oxo-5,8-dihydro-pyrido[2,3-d]pyrimidine-6-carboxylic acid methoxy-amide]"
20,1,"CONC(=O)c1cn(-c2ccc3c(c2)CCC3)c2nc(Nc3cccc(C4CCN(C)CC4)c3)ncc2c1=O [Cpd 273, 8-indan-5-yl-2-[3-(1-methyl-piperidin-4-yl)-phenylamino]-5-oxo-5,8-dihydro-pyrido[2,3-d]pyrimidine-6-carboxylic acid methoxy-amide]"
21,1.2,"CCOC(=O)CN1CCC(c2ccc(Nc3ncc4c(=O)c(C(=O)NOC)cn(-c5ccc6c(c5)CCC6)c4n3)cc2)CC1 [Cpd 218, {4-[4-(8-indan-5-yl-6-methoxycarbamoyl-5-oxo-5,8-dihydro-pyrido[2,3-d]pyrimidin-2-ylamino)-phenyl]-piperidin-1-yl}-acetic acid ethyl ester]"
22,0.36,"CCc1cccc(-n2cc(C(=O)NOC)c(=O)c3cnc(Nc4ccc(C5CCN(C)CC5)cc4)nc32)c1 [Cpd 212, 8-(3-ethyl-phenyl)-2-[4-(1-methyl-piperidin-4-yl)-phenylamino]-5-oxo-5,8-dihydro-pyrido[2,3-d]pyrimidine-6-carboxylic acid methoxy-amide]"
23,3.6,"CONC(=O)c1cn(-c2ccc3c(c2)CCC3)c2nc(Nc3ccc(CCNS(C)(=O)=O)cc3)ncc2c1=O [Cpd 82, 8-indan-5-yl-2-[4-(2-methanesulfonylamino-ethyl)-phenylamino]-5-oxo-5,8-dihydro-pyrido[2,3-d]pyrimidine-6-carboxylic acid methoxy-amide]"
24,319,"CONC(=O)c1cn(-c2ccc3c(c2)CCC3)c2nc(Nc3ccc4[nH]cnc4c3)ncc2c1=O [Cpd 302, 2-(1H-benzoimidazol-5-ylamino)-8-indan-5-yl-5-oxo-5,8-dihydro-pyrido[2,3-d]pyrimidine-6-carboxylic acid methoxy-amide]"
25,0.7,"CCONC(=O)c1cn(-c2ccc3c(c2)CCC3)c2nc(Nc3ccc(C[C@H]4COC(=O)N4)cc3)ncc2c1=O [Cpd 68, (S)-8-indan-5-yl-5-oxo-2-[4-(2-oxo-oxazolidin-4-ylmethyl)-phenylamino]-5,8-dihydro-pyrido[2,3-d]pyrimidine-6-carboxylic acid ethoxy-amide]"
26,1.5,"NC(=O)c1cn(-c2ccc3c(c2)CCC3)c2nc(Nc3ccc(CCN4CCCC4)cc3)ncc2c1=O [Cpd 5, 8-indan-5-yl-5-oxo-2-[4-(2-pyrrolidin-1-yl-ethyl)-phenylamino]-5,8-dihydro-pyrido[2,3-d]pyrimidine-6-carboxylic acid amide]"
27,0.52,"CONC(=O)c1cn(-c2ccc3c(c2)CCC3)c2nc(Nc3ccc(C4CCCCN4C)cc3)ncc2c1=O (stereo not drawn) [Cpd 243, 8-indan-5-yl-2-[4-(1-methyl-piperidin-2-yl)-phenylamino]-5-oxo-5,8-dihydro-pyrido[2,3-d]pyrimidine-6-carboxylic acid methoxy-amide]"
